Test results taken from US20210052358A1, “TEETH WHITENING PRODUCT CONTAINING PIEZOELECTRIC MATERIAL” (Nanjing University of Science & Technology, priority 2019, published 2021).
Read-outs that look alike come from different tables or passages of the source.

How the values were obtained:
[1] = test system: rat thoracic aortic smooth muscle cells; assay type: cell-based; conditions: added to culture medium; final concentration: barium titanate 1 mg/mL, H2O2 15% (FIG. 6)
Experimental: A biological toxicity testing was conducted on barium titanate powders using rat thoracic aortic smooth muscle cells. Different additives were charged into cell culture media. After culture for a period of time, biological statistics was conducted. FIG. 6(a) illustrates a cell count in a standard medium as a function of cell culture time; FIGS. 6(b) and 6(c) illustrate results after addition of barium titanate powders (final concentration: 1 mg/mL) and 30% H2O2 (final concentration: 15%) in a culture medium, respectively; FIG. 6(d) illustrates mathematical statistics of results of every day.

[2] = after whitening for the same time period, SEM (FIG. 7)

OO [H2O2, hydrogen peroxide]
effect on cell growth and proliferation (cell count versus culture time) [1]: almost all cells in the medium die | damage to the tooth surface / enamel [2]: damages the tooth surface seriously | damage to the tooth surface / enamel ([2]; listed as 30% H2O2): causes non-ignorable damage to the enamel on the tooth surface
